In US20160297830A1, “NOVEL COMPOUNDS USEFUL FOR THE TREATMENT OF BACTERIAL INFECTIOUS DISEASES” (GALAPAGOS NV, priority 2013, published 2016):
Values after ≈ are worked out from the molar mass of the structure shown. Read-outs that look alike come from different tables or passages of the source.

Legend:
[1] = tested on: S. aureus Sa1 ATCC 13709; test: microbe, parasite or virus in culture; assay type: cell-based; conditions: Staphylococcus aureus, ATCC13709, read-out: MIC Sa1
[2] = tested on: Methicillin Resistant S. aureus (MRSA); test: Neutropenic mouse thigh infection model; conditions: Thigh Sa
[3] = tested on: S. aureus Sa26 ATCC 25923; test: Antibacterial activity assay (MIC), S. aureus Sa26; assay type: cell-based; conditions: Staphylococcus aureus
[4] = tested on: S. aureus Sa2 clinical strain NCIMB 41953, MRSA; test: microbe, parasite or virus in culture; assay type: cell-based; conditions: Staphylococcus aureus, read-out: MIC Sa2
[5] = tested on: E. coli Ec1 ATCC 25922; test: Antibacterial activity assay (MIC), E. coli Ec1; assay type: cell-based; conditions: Escherichia coli, ATCC25922, read-out: MIC Ec1
[6] = tested on: H. influenza Hi3 ATCC 31517; test: organism not typed; assay type: cell-based; conditions: read-out: MIC Hi3
[7] = tested on: H. influenza Hi47 clinical strain, Ampicillin Resistant; test: organism not typed; assay type: cell-based; conditions: read-out: MIC Hi47
[8] = tested on: Methicillin Resistant S. aureus Sa2 (MRSA); assay type: in vivo; conditions: Groin Sa, Study 2; 50 mg/kg PO BID; sample time 31 h post infection
[9] = tested on: E. coli Ec113 efflux pump KO; test: microbe, parasite or virus in culture; assay type: cell-based; conditions: Escherichia coli, read-out: MIC Ec113 efflux pump KO
[10] = biological target: DNA III Polymerase E (Escherichia coli, UniProt P10443); test: In vitro activity against DNA III Polymerase E, E. coli; assay type: biochemical; conditions: DNA polymerase III, E. coli; read-out: IC50 semiquantitative scoring, E. coli
Sequence of DNA III Polymerase E (P10443 whole entry): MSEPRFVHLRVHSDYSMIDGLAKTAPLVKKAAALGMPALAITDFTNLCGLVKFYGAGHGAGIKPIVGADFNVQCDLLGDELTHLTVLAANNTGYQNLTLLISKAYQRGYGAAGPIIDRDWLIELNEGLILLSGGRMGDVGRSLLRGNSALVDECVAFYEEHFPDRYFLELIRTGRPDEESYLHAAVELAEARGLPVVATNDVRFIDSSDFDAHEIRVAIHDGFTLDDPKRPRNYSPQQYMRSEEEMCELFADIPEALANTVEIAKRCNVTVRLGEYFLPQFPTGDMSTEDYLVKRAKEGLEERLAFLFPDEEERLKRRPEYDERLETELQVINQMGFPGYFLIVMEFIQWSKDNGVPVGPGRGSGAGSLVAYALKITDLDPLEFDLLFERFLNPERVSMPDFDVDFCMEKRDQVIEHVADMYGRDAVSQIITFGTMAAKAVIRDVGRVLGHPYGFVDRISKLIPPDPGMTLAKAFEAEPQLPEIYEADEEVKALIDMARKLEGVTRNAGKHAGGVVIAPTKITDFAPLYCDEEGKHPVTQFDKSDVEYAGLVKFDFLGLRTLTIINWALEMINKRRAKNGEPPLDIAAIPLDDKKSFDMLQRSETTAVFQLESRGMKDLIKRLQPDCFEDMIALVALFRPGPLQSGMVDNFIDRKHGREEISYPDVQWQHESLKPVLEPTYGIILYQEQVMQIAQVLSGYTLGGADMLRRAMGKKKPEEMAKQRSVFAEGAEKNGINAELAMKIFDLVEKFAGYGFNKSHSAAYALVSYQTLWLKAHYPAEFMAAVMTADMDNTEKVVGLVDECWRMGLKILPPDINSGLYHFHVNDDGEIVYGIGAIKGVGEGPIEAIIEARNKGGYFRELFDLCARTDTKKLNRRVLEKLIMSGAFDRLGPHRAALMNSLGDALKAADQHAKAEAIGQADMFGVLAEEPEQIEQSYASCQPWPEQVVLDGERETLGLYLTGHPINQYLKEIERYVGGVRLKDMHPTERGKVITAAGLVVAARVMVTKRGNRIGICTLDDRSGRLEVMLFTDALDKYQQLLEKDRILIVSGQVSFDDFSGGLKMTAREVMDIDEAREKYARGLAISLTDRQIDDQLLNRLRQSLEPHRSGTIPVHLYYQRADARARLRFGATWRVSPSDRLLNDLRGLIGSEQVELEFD
Summary of the method: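 Recombinant enzyme (0.47 μg/mL diluted stock) in 20 mM Tris pH7.5, 8 mM DTT, 10 mM MgOAc, 0.05% CHAPS met compound series from 100 μM top, 1/5 steps. Activated calf thymus DNA, dNTPs and [α-33P]-dTTP substrate were added, and incubation ran 120 min at 30° C. IC50 came from filter-captured incorporated radioactivity versus controls.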

[11] = tested on: Methicillin Resistant S. aureus Sa2 (MRSA); test: animal or person; assay type: in vivo; conditions: lung
[12] = tested on: E. coli Ec50 efflux pump KO; test: microbe, parasite or virus in culture; assay type: cell-based; conditions: Escherichia coli, read-out: MIC Ec50 efflux pump KO
[13] = tested on: H. influenza Hi106 ATCC 51907; test: organism not typed; assay type: cell-based; conditions: read-out: MIC Hi106
[14] = biological target: DNA Polymerase IIIα (DnaE) from Staphylococcus aureus (Staphylococcus aureus, UniProt Q6GG04); test: biochemical
Sequence of DNA Polymerase IIIα (DnaE) from Staphylococcus aureus (Q6GG04 1-1022): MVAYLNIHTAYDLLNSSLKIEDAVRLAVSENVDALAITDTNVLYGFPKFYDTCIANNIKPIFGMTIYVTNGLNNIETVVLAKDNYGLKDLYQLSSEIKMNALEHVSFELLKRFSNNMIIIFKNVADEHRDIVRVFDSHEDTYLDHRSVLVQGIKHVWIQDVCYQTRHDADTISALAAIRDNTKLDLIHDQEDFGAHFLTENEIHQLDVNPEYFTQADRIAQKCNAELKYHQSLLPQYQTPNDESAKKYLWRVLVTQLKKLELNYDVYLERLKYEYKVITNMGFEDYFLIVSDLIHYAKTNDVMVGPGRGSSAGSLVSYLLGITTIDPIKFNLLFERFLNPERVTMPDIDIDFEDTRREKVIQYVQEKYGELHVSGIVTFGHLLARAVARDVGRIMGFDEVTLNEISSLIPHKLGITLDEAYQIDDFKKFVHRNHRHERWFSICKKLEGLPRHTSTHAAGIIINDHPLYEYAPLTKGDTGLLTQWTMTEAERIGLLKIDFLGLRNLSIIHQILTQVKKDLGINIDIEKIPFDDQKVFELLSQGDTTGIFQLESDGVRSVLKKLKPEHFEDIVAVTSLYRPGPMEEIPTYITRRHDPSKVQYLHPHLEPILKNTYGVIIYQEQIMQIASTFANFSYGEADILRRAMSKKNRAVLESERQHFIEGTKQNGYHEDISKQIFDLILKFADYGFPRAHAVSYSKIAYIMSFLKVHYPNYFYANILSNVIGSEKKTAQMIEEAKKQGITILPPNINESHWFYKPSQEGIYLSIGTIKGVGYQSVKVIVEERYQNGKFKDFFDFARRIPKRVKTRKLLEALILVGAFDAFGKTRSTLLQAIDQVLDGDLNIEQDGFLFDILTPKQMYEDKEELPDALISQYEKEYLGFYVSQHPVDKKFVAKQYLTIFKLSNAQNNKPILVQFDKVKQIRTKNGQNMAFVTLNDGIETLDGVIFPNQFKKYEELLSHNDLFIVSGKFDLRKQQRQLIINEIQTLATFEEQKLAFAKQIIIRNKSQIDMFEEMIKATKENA

[15] = tested on: S. aureus Sa4 NCTC 6571; test: Antibacterial activity assay (MIC), S. aureus Sa4; assay type: cell-based; conditions: Staphylococcus aureus, NCTC6571, read-out: MIC Sa4
[16] = tested on: H. influenza Hi10 clinical strain; test: organism not typed; assay type: cell-based; conditions: read-out: MIC Hi10
[17] = Study 2, 50 mg/kg IP BID, sample time 7 h PI
[18] = Study 4, 5 mg/kg IP BID, sample time 24 h PI
[19] = Study 4, 15 mg/kg IP BID, sample time 24 h PI
[20] = Study 4, 50 mg/kg IP BID, sample time 24 h PI
[21] = Study 5, 5 mg/kg IV BID, sample time 24 h PI
[22] = Study 6, 25 mg/kg IV BID, sample time 24 h PI
[23] = Study 7, 15 mg/kg PO BID, sample time 24 h PI
[24] = Study 7, 50 mg/kg PO BID, sample time 24 h PI
[25] = Study 8, 50 mg/kg PO QD, sample time 48 h PI

## COC[C@@H]1[C@@H](O)[C@@H]2[C@H]3C=C[C@@H]4[C@@H](COC)C(=O)O[C@H]([C@H](O)COC)[C@H](C)/C=C(\C)[C@@]24O[C@H]3[C@@H]1OC(=O)c1ccc[nH]1 [Compound 2, 8-O-1H-pyrrole-2′-carbonylbranimycin]
[1]
  MIC: 1 µg/mL (≈ 1.74 µM)
[2]; [17]
  Active: Y
  Log reduction vs. untreated: −3.55
[2]; [18]
  Active: N
  Log reduction vs. untreated: −1.16
[2]; [19]
  Active: Y
  Log reduction vs. untreated: −3.32
[2]; [20]
  Active: Y
  Log reduction vs. untreated: −4.74
[2]; [21]
  Active: N
  Log reduction vs. untreated: −0.13
[2]; [22]
  Active: Y
  Log reduction vs. untreated: −3.92
[2]; [23]
  Active: Y
  Log reduction vs. untreated: −4.13
[2]; [24]
  Active: Y
  Log reduction vs. untreated: −6.72
[2]; [25]
  Active: Y
  Log reduction vs. untreated: −4.63
[3]; ATCC25923, read-out: MIC Sa26
  MIC: 1 µg/mL (≈ 1.74 µM)
[3]; ATCC25923, read-out: MIC Sa26 + 10% SH
  MIC: 1 µg/mL
[3]; ATCC25923, read-out: MIC Sa26 + 50% SH
  MIC: 2 µg/mL
[4]
  MIC: 0.5 µg/mL (≈ 0.869 µM)
[5]
  MIC: > 64 µg/mL
[6]
  MIC: > 64 µg/mL
[7]
  MIC: > 64 µg/mL
[8]
  Active: Y
  Log reduction vs. untreated: −2.52
[9]
  MIC: 1 µg/mL (≈ 1.74 µM)
[10]
  IC50: 1740 to 17400 nM
[11]; Staphylococcus aureus, MRSA, in Mus musculus, po, 24 h, read-out: Log reduction vs. untreated, Study 1, 50 mg/kg PO BID, sample 24 h post infection
  log reduction at 50 mg/kg: 3.36
[11]; Staphylococcus aureus, MRSA, in Mus musculus, po, 24 h, read-out: Log reduction vs. untreated, Study 2, 15 mg/kg PO BID, sample 24 h post infection
  log reduction at 15 mg/kg: 3.91
[11]; Staphylococcus aureus, MRSA, in Mus musculus, po, 24 h, read-out: Log reduction vs. untreated, Study 2, 50 mg/kg PO BID, sample 24 h post infection
  log reduction at 50 mg/kg: 2.99
[11]; Staphylococcus aureus, MRSA, in Mus musculus, po, 24 h, read-out: Log reduction vs. untreated, Study 4, 6.25 mg/kg PO BID, sample 24 h post infection
  log reduction at 6.25 mg/kg: 0.04
[11]; Staphylococcus aureus, MRSA, in Mus musculus, po, 24 h, read-out: Log reduction vs. untreated, Study 4, 12.5 mg/kg PO BID, sample 24 h post infection
  log reduction at 12.5 mg/kg: 1.9
[11]; Staphylococcus aureus, MRSA, in Mus musculus, po, 24 h, read-out: Log reduction vs. untreated, Study 4, 25 mg/kg PO BID, sample 24 h post infection
  log reduction at 25 mg/kg: 3.48
[11]; Staphylococcus aureus, MRSA, in Mus musculus, po, 72 h, read-out: Log reduction vs. untreated, Study 5, 5 mg/kg PO QD, sample 72 h post infection
  log reduction at 5 mg/kg: 1.57
[11]; Staphylococcus aureus, MRSA, in Mus musculus, po, 72 h, read-out: Log reduction vs. untreated, Study 5, 15 mg/kg PO QD, sample 72 h post infection
  log reduction at 15 mg/kg: 3.62
[11]; Staphylococcus aureus, MRSA, in Mus musculus, po, 72 h, read-out: Log reduction vs. untreated, Study 6, 25 mg/kg PO QD, sample 72 h post infection
  log reduction at 25 mg/kg: 3.65
[11]; Study 1, 50 mg/kg PO BID, sample 24 h post infection
  Active: Y
[11]; Study 2, 15 mg/kg PO BID, sample 24 h post infection
  Active: Y
[11]; Study 2, 50 mg/kg PO BID, sample 24 h post infection
  Active: Y
[11]; Study 4, 6.25 mg/kg PO BID, sample 24 h post infection
  Active: N
[11]; Study 4, 12.5 mg/kg PO BID, sample 24 h post infection
  Active: Y
[11]; Study 4, 25 mg/kg PO BID, sample 24 h post infection
  Active: Y
[11]; Study 5, 5 mg/kg PO QD, sample 72 h post infection
  Active: Y
[11]; Study 5, 15 mg/kg PO QD, sample 72 h post infection
  Active: Y
[11]; Study 6, 25 mg/kg PO QD, sample 72 h post infection
  Active: Y
[12]
  MIC: 16 µg/mL (≈ 27.8 µM)
[13]
  MIC: > 64 µg/mL
[14]
  IC50: 1.74 to 1740 nM
[15]
  MIC: 1 µg/mL (≈ 1.74 µM)
[16]
  MIC: > 64 µg/mL
